The target of one series is CCR5 receptor (Homo sapiens, UniProt P51681). In words: [35S]GTPγS binding assay. It is filed as biochemical. The text has this: [^35S]GTPγS binding assay
CCR5 receptor binds to agonists and changes its conformation which enables it to interact with and activate G protein, a heterotrimer which consists of subunits α and βγ. The capability of G protein α subunit binding to GTP depends on the effect between CCR5 and the agonists, therefore, the amount of α subunit bound GTP should reflect the agonists activity on the CCR5 receptor. In the GTPγS binding assay, [^35S]GTPγS is resistant to the GTPase activity of α subunit, and thus cannot be hydrolyzed when bound to G protein, making it accurate to reflect the receptor activation. Radiolabled [^35S]GTPγS can also serve as marker for detection in place of GTP. When CCR5 is not activated, α subunit is bound to GDP, but when CCR5 is activated, α subunit binds to [^35S]GTPγS, therefore, measurement of the number of the α subunit-bound ^35S-GTPγS can reflect the CCR5 activation level.
CCR5 activation of G-protein was measured according to assays below:
Permanent cell line expressing CHO of CCR5 (available at Euroscreen S.A., Belgium) was lysed by lysis buffer (5 mM Tris HCl, pH 7.5, 5 mM EDTA and 5 mM EGTA), and centrifuged at 15,000×g for 10 min. Cell membrane was resuspended with reaction buffer (5 mM Tris HCl, pH 7.5, 5 mM MgCl2, 1 mM EGTA, 100 mM NaCl), and protein concentrations were determined using Bioford assay (Bio-rad). [^35S]GTPγS binding assay was performed in the 100 μl reaction buffer system, which contains 10 ug membrane protein, 40 uM GDP and 0.5 nM [^35S]GTPγS (1200 Ci/mmol). After adding the study compounds, the system was vortexed and placed on ice for 5 min, and then CCR5 agonist was added (10 nM RANTES or 30 nM MIP1β). After vortexing, the reaction tubes were incubated at 30° C. for 1 h. After the reaction was complete, the reaction tubes were placed on ice and diluted with PBS to terminate the reaction. After suction through the GF/C filter membrane under vacuum, the membrane bound radioactivity was measured with a scintillation counter. Basal binding was measured without presence of agonist, and non-specific binding was measured in the presence of 10 mM nonisotopical GTPγS. The binding ratio of [^35S]GTPγS was calculated according to 100×[c.p.m.sample−c.p.m. non-specific]/[c.p.m.basal−c.p.m. non-specific]. IC50 was the compound concentration at which half of the [^35S]GTPγS binding induced by 10 nM RANTES or 30 nM MIP1β was inhibited, and the value was obtained from the concentration-inhibition curve (6-7 points for concentrations of each compound).
A general note: GTPγS is a poorly hydrolysed GTP analogue; its binding reports G protein activation.

In a further series the target is T1, CCR1 (Homo sapiens, UniProt P32246).
T1 sequence (P32246 1-355): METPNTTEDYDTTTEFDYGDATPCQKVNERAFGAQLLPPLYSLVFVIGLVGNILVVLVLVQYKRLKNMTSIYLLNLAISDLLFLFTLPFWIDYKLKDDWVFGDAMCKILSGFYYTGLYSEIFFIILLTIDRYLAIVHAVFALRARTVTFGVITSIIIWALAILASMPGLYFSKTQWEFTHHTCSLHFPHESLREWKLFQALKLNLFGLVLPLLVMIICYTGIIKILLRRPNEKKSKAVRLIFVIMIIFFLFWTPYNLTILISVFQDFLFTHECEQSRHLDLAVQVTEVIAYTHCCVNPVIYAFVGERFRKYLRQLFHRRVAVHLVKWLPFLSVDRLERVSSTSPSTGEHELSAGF
In words: effects on the activation of CCR1 receptor. Conditions: at the concentration of 10,000 nM.

The target of another series is CXCR4 (Homo sapiens, UniProt P61073). Briefly: effects on the activation of CXCR4 receptor. Conditions: at the concentration of 10,000 nM.
A short description of a further series: MTT cytotoxicity assay. The following applies: human, peripheral blood mononuclear cells (PBMC) and Jurkat cells; MTT. Format: cell-based. The procedure:
(§1) C. MTT Cytotoxicity Assay
(§2) Cells were prepared as single cell suspension, and cell densities were adjusted according to the cell size and cell features. Cells were inoculated with 100 ul culture media into 96 well plates, and incubated in 37° C. incubator (5% CO2, saturated humidity). The seeding densities were as follows: peripheral blood monouclear cells (PBMC) 10^5 cells /well, Jurket 4×10^4 cells/well. 24 h after cell inoculation, the compounds to be tested were added and incubated with cells. 48 h after inoculation, 10 μl MTT (Sigma, USA, 5 mg/ml, diluted with PBS and stored at −20° C.) was added to each well, and incubated for another 4 h in 37° C. incubator. Then add 50 μl formazane solvent (10%SDS-5%isopropanol−0.01M HCl) and incubate overnight. Determine OD570/OD630 nm at spectrophotometer, and calculate CC50 according to the inhibition curve.
Background: Tetrazolium assays rely on reduction of a dye to a coloured formazan, in cell work by metabolically active cells.

For series [1], the system named is peripheral blood monouclear cells (PBMC), Jurket. Briefly: MTT cytotoxicity assay. It is filed as cell-based. Conditions: at 10,000 nM. The procedure:
as §1, §2

Where [2] appears, read: Table I, [35S]GTPγS binding, read-out: IC50.
The mark [3] stands for this setting: [35S]GTPγS binding initiated by 10 nM RANTES, read-out: IC50(nM) ± S.E.
[4] abbreviates: Table I, class symbols, inhibition at 10,000 nM, read-out: IC50.
Setting [5] is: [35S]GTPγS binding initiated by 10 nM RANTES, class symbols, inhibition at 10,000 nM, read-out: IC50(nM) ± S.E.

Like-named read-outs stand apart in the source and are kept apart here. Some results are limits rather than exact numbers.

This is an account of results in US20070161634A1, “Compounds as CCR5 antagonists” (priority 2004, published 2007).

CCR5 receptor, sequence (P51681 whole entry): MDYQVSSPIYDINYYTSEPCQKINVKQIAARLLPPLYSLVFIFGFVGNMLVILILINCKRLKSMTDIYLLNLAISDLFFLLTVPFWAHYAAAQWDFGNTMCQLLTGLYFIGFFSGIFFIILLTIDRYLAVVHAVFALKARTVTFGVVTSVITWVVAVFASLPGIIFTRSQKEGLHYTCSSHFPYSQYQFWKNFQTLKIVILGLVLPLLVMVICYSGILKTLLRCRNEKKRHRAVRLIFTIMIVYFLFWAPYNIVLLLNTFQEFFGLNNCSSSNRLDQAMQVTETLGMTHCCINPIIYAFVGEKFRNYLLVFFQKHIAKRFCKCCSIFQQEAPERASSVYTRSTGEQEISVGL
CXCR4, sequence (P61073 whole entry, species assumed): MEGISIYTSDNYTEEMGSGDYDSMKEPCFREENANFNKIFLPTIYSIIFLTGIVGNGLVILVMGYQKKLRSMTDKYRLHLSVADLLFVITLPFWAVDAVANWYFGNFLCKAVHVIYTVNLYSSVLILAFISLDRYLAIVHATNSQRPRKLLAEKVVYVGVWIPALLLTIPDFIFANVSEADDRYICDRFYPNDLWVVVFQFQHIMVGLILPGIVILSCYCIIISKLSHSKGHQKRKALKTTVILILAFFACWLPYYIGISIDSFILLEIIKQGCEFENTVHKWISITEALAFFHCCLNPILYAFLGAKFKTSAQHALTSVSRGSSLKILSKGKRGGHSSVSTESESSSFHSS

Turning to `OC1(c2ccc3c(c2)OCO3)CN(Cc2ccccc2)CC1CN1CCC(c2ccccc2)CC1` (centres unmarked) [I-a-a, 1-benzyl-3-(benzo[1,3]dioxol-5-yl)-4-[(4-phenylpiperidin-1-yl)methyl]pyrrolidin-3-ol], the IC50 at CCR5 receptor (setting [2]) and at CCR5 receptor (setting [3]) was around 10000 nM in each case.
Take `O=C(c1ccccc1)N1CC(CN2CCC(c3ccccc3)CC2)C(O)(c2ccccc2)C1` (centres unmarked) [I-b-b, (3-hydroxy-3-phenyl-4-[(4-phenylpiperidin-1-yl)methyl]pyrrolidin-1-yl)(phenyl)methanone]: the IC50 – broadly, the concentration that gives 50% inhibition – on CCR5 receptor (setting [2]) amounted to 2860 ± 860 nM; at CCR5 receptor (setting [3]), 2860 ± 60 nM.
The like results for `O=C(c1ccccc1I)N1CC(CN2CCC(c3ccccc3)CC2)C(O)(c2ccccc2)C1` (centres unmarked) [I-b-c, (3-hydroxy-3-phenyl-4-[(4-phenylpiperidin-1-yl)methyl]pyrrolidin-1-yl)(2-iodophenyl) methanone] were, in that order, 1160 ± 224 nM and 1160 ± 224 nM.
On to `O=S(=O)(c1ccccc1)N1CC(CN2CCC(c3ccccc3)CC2)C(O)(c2ccccc2)C1` (centres unmarked) [I-b-d, 3-phenyl-4-[(4-phenylpiperidin-1-yl)methyl]-1-(phenylsulfonyl)pyrrolidin-3-ol], for which the IC50 on CCR5 receptor (setting [4]) and at CCR5 receptor (setting [5]) was above 10000 nM in each case.
For the molecule `O=C(C1CCCC1)N1CC(CN2CCC(c3ccccc3)CC2)C(O)(c2ccccc2)C1` (centres unmarked) [I-b-e, Cyclopentyl-(3-hydroxy-3-phenyl-4-[(4-phenylpiperidin-1-yl)methyl]pyrrolidin-1-yl)metha none], the IC50 on CCR5 receptor (setting [2]) and on CCR5 receptor (setting [3]) was 1890 ± 615 nM each time.
In the case of `OC1(c2ccccc2)CN(Cc2ccccc2)CC1CN1CCC(CCCc2ccccc2)CC1` (centres unmarked) [I-b-g, 1-benzyl-3-phenyl-4-{[4-(3-phenylpropyl)piperidin-1-yl]methyl}pyrrolidin-3-ol], the IC50 on CCR5 receptor (setting [2]) and on CCR5 receptor (setting [3]) was 408 ± 10.5 nM in each case.
For the molecule `OC1(CCCc2ccccc2)CCN(CC2CN(Cc3ccccc3)CC2(O)c2ccccc2)CC1` (centres unmarked) [I-b-h, 1-[(1-benzyl-4-hydroxy-4-phenylpyrrolidin-3-yl)methyl]-4-(3-phenylpropyl)piperidin-4-ol], the IC50 on CCR5 receptor (setting [2]) and on CCR5 receptor (setting [3]) was 368 ± 52 nM throughout.
Consider `OC1(c2ccc(F)cc2)CN(Cc2ccccc2)CC1CN1CCC(c2ccccc2)CC1` (centres unmarked) [I-b-j, 1-benzyl-3-(4-fluorophenyl)-4-((4-phenylpiperidin-1-yl)methyl)pyrrolidin-3-ol], for which the IC50 at CCR5 receptor (setting [4]) and at CCR5 receptor (setting [5]) was above 10000 nM each time.
As for `OC1(CCCc2ccccc2)CCN(CC2CN(Cc3ccccc3)CC2(O)c2ccc(F)cc2)CC1` (centres unmarked) [I-b-k, 1-{[1-benzyl-4-(4-fluorophenyl)-4-hydroxypyrrolidin-3-yl]methyl}-4-(3-phenylpropyl)piper idin-4-ol], the IC50 at CCR5 receptor (setting [2]) and at CCR5 receptor (setting [3]) was 2510 nM in each case.
Take `CCN(C(=O)OCc1ccccc1)C1CCN(CC2CN(Cc3ccccc3)CC2(O)c2ccccc2)CC1` (centres unmarked) [II-a-a, Benzyl 1-[(1-benzyl-4-hydroxy-4-phenylpyrrolidin-3-yl)methyl]piperidin-4-yl (ethyl)carbamate]: the “activation or antagonism of CCR1 receptor” value on CCR1 was “do not activate or antagonize”. The “activation or antagonism of CXCR4 receptor” value at CXCR4 is listed as “do not activate or antagonize”. The IC50 at CCR5 receptor (setting [2]) and on CCR5 receptor (setting [3]) was 401 ± 87.5 nM in each case. In addition, the cytotoxic concentration (CC50) – broadly, the concentration that lowers cell viability or growth by half – at 24 h in “MTT cytotoxicity assay” is around 30000 nM. Besides, the cytotoxicity on cells entry in series [1] is reported as “no significant cytotoxicity”.
Turning to `CCN(C(=O)OCc1ccccc1)C1CCN(CC2CN(Cc3ccccc3)CC2(O)c2ccc(F)cc2)CC1` (centres unmarked) [II-a-b, Benzyl 1-[(1-benzyl-4-(4-fluorophenyl)-4-hydroxypyrrolidin-3-yl)methyl]piperidin-4-yl (ethyl)carbamate], the IC50 on CCR5 receptor (setting [2]) and on CCR5 receptor (setting [3]) was 565 ± 64.5 nM throughout.
`CCN(C(=O)OCc1ccccc1)C1CCN(CC2CN(Cc3ccccc3)CC2(C)O)CC1` (centres unmarked) [II-a-c]: the IC50 at CCR5 receptor (setting [4]) and at CCR5 receptor (setting [5]) was above 10000 nM in each case.
For `C=CCN(C(=O)OCc1ccc([N+](=O)[O-])cc1)C1CCN(CC2CN(Cc3ccccc3)CC2(O)c2ccccc2)CC1` (centres unmarked) [III-a-a, 4-nitrobenzyl allyl(1-((1-benzyl-4-hydroxy-4-phenylpyrrolidin-3-yl)methyl)piperidin-4-yl) carbamate], the “activation or antagonism of CCR1 receptor” value on CCR1 is reported as “do not activate or antagonize”. Moreover, the “activation or antagonism of CXCR4 receptor” value at CXCR4 was “do not activate or antagonize”. Moreover, the IC50 at CCR5 receptor (setting [2]) and on CCR5 receptor (setting [3]) was around 10000 nM in each case.
`C=CCN(C(=O)OCc1ccccc1)C1CCN(CC2CN(C(=O)C3CCCC3)CC2(O)c2ccccc2)CC1` (centres unmarked) [III-a-h, benzyl allyl(1-((1-(cyclo-pentanecarbonyl)-4-hydroxy-4-phenylpyrrolidin-3-yl)methyl)piperi-din-4-yl) carbamate]: the IC50 on CCR5 receptor (setting [2]) and on CCR5 receptor (setting [3]) was 8.75 nM in each case.
With `C=CCN(C(=O)OCc1ccc(OC)cc1)C1CCN(CC2CN(C(=O)C3CCCC3)CC2(O)c2ccccc2)CC1` (centres unmarked) [III-a-i, 4-methoxybenzyl allyl(1-((1-(cyclo-pentanecarbonyl)-4-hydroxy-4-phenylpyrrolidin-3-yl)methyl)piperi-din-4-yl) carbamate], the IC50 on CCR5 receptor (setting [2]) and on CCR5 receptor (setting [3]) was 4.33 nM each time.
For `C=CCN(C(=O)OCc1ccc(Br)cc1)C1CCN(CC2CN(C(=O)C3CCCC3)CC2(O)c2ccccc2)CC1` (centres unmarked) [III-a-j, 4-bromobenzyl allyl(1-((1-cyclo-pentanecar-bonyl)-4-hydroxy-4-phenylpyrrolidin-3-yl)methyl) piperidin-4-yl) carbamate], the IC50 on CCR5 receptor (setting [2]) and on CCR5 receptor (setting [3]) was 8.87 nM each time.
As for `C=CCN(C(=O)Nc1ccccc1)C1CCN(CC2CN(C(=O)C3CCCC3)CC2(O)c2ccccc2)CC1` (centres unmarked) [III-a-k, 1-allyl-1-(1-((1-(cyclopentane-carbonyl)-4-hydroxy-4-phenylpyrrolidin-3-yl)methyl)piperidin-4-yl)-3-phenylurea], the IC50 on CCR5 receptor (setting [2]) and on CCR5 receptor (setting [3]) was 6.46 nM each time.
Turning to `C=CCN(C(=O)COc1ccccc1)C1CCN(CC2CN(C(=O)C3CCCC3)CC2(O)c2ccccc2)CC1` (centres unmarked) [III-a-l, N-allyl-N-(1-((1-(cyclopen-tanecarbonyl)-4-hydroxy-4-phenylpyrrolidin-3-yl)methyl)piperi-din-4-yl)-3-phenoxy acetamide], the IC50 on CCR5 receptor (setting [2]) and on CCR5 receptor (setting [3]) was 13.6 nM in each case.
Regarding `C[C@H]1[C@@H](CN2CCC(c3ccccc3)CC2)C(O)(c2ccccc2)CN1Cc1ccccc1` (some centres unmarked) [IV-a-a, 1-benzyl-5-methyl-3-phenyl-4-[(4-phenylpiperi-din-1-yl)methyl]py-rrolidin-3-ol], the IC50 on CCR5 receptor (setting [4]) and at CCR5 receptor (setting [5]) was above 10000 nM in each case.
